Laboratory results: PubChem BioAssay (NCI)
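Grown in 96-well plates, cells were treated for 48 hours with each compound at five concentrations. Insufficient inhibition: endpoint recorded as highest concentration tested. GI50: concentration for 50% inhibition of growth. TGI is the concentration that stops growth completely.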 Where a SMILES comes first, the peptide text is derived from it. Bridges are numbered along the chain shown (N, C = ends). [ ]: non-standard residue; d: D form. The star is where a group is joined. ξ: configuration not given here. ξDab(CH2SO3H) = NC(CCNCS(=O)(=O)O)C(=O)O; Heptanoyl(6-Me) = CC(C)CCCCC(=O)*; Dab = NCC[CH](N)C(=O)O

Test system: MDA-MB-468 breast
Experiment: NCI-60 cell line screen, 48 h

| Structure (SMILES) | GI50 | TGI |
| --- | --- | --- |
| N=C(N)SCc1c2ccccc2c(CSC(=N)N)c2ccccc12 | 2320 nM | 9810 nM |
| N#C[Se]CCN1C(=O)C2C(C1=O)[C@H]1C=C[C@@H]2S1 (stereo not given in full) | 2600 nM | 7710 nM |
| CN(C)CCCCC(C(=O)CBr)(c1ccccc1)c1ccccc1 | 1090 nM | 2890 nM |
| C=C1[C@@H](C)C2[C@H](Cc3ccccc3)NC(=O)[C@]23[C@H](OC(C)=O)/C=C/[C@@](C)(O)C(=O)[C@@H](C)C/C=C/[C@H]3[C@@H]1O (stereo not given in full) | 38.9 nM | 12700 nM |
| N#Cc1c(N)n2c(nc1=Nc1ccc(Cl)cc1)sc1cc(Cl)ccc12 | 3620 nM | > 100000 nM |
| Cc1ccc2c(c1)c(Sc1ccc(C(=O)NO)cc1)c1n2CN(C)CC1 | 1100 nM | 2970 nM |
| CCCCCCCCC/C(=N\NC(=O)c1ccncc1)c1ccc(O)c(O)c1O | 161 nM | 1110 nM |
| [Cl][Hg][c]1ccc(Cl)s1 | 1190 nM | 2770 nM |
| Cc1nc(-c2nc(-c3ccc(OC(F)(F)F)cc3)no2)nn1Cc1cccc(N2CCC(S(C)(=O)=O)CC2)c1 | < 10 nM | 3900 nM |
| Clc1ccc(Nc2ccnc(N3CCN(c4ccnc5cc(Cl)ccc45)CC3)n2)cc1 | 2080 nM | 5560 nM |
| CN1CCN(Cc2ccc(NC(=O)c3cncc(C#Cc4cnc5ccc(OCC(C)(C)O)nn45)c3)cc2C(F)(F)F)CC1 | 183 nM | 409 nM |
| Cn1cc(C2=C(c3c4n(c5ccccc35)CCC(CN)C4)C(=O)NC2=O)c2ccccc21 (stereo not given) | 2910 nM | 6890 nM |
| CCN1C(=O)N(CC)C2C1NN=c1s/c(=C\c3ccco3)c(=O)n12 (stereo not given) | 356 nM | > 100000 nM |
| O=C([O][Hg][CH2]C1OCCOC1[CH2][Hg][O]C(=O)c1ccccc1)c1ccccc1 (stereo not given) | 1710 nM | 3080 nM |
| O=C(/C(=C/c1ccc([N+](=O)[O-])cc1)SCc1ccc(Cl)cc1)c1ccc(F)cc1 | 2870 nM | 9220 nM |
| N/C(=N/N=C/c1ccccc1)N/N=C\c1ccccc1 | 2520 nM | 11300 nM |
| COc1cc2ncnc(Nc3cccc(Cl)c3F)c2cc1OC(=O)N1CCN(C)C[C@H]1C | 60.7 nM | 1270 nM |
| CCCCCCn1c(-c2ccc(C(=O)O/N=C(\N)c3ccc4ccccc4c3)cc2)nc(-c2ccccc2)c1-c1ccccc1 | 22200 nM | 97700 nM |
| CCOC(=O)Nc1nc2ccc(Br)cc2s1 | > 50000 nM | > 50000 nM |
| COc1cc(C(=O)N2CCN(c3ccccc3)CC2)c2ccccc2n1 | 31.8 nM | 211 nM |
| S=C(NCCNC(=S)[S][Sn]([c]1ccccc1)([c]1ccccc1)[c]1ccccc1)[S][Sn]([c]1ccccc1)([c]1ccccc1)[c]1ccccc1 | 12.9 nM | 41.9 nM |
| O=[N+]([O-])c1ccc(C2CC(c3ccccc3)=Nc3ccccc3S2)cc1 (stereo not given) | > 100000 nM | > 100000 nM |
| CC(C)(C)[Si](C)(C)OC1[C@@H](O[Si](C)(C)C(C)(C)C)[C@@H](CNC(=O)NC(=O)CF)O[C@H]1n1cnc2c(NC(=O)Nc3ccccc3)ncnc21 (stereo not given in full) | 3210 nM | 20100 nM |
| CCCCCCCCCCCCSC1=C(Cl)C(=O)C(OC)=C(OC)C1=O | 438 nM | 16900 nM |

| Structure (SMILES) | GI50 | TGI |
| --- | --- | --- |
| CCOC(=O)c1cc(C(=O)c2cc(OC)c(OC)c(OC)c2)n2c1ccc1ccccc12 | 158 nM |  |
| CC[C@]12CC(C(=O)OC)=C3Nc4ccccc4[C@@]34CCN(C14)[C@@H]1c3cc4c(cc3O[C@@H]1[C@H]2O)NC1=C(C(=O)OC)C[C@@]2(CC)C3N(CC[C@@]143)C[C@H]1O[C@H]12 (stereo not given in full) | 129 nM | 1050 nM |
| COc1cc(/C(=C2/O[C@@H]([C@H]3COC(C)(C)O3)[C@H]3OC(C)(C)O[C@@H]23)c2ccc3ccccc3c2)cc(OC)c1OC | 4020 nM | 21100 nM |
| Cn1nc(C(F)(F)F)cc1-c1c[nH]c(OCc2ccc(Cl)cc2)c(-c2ccc(Cl)c(C(F)(F)F)c2)c1=O | 940 nM | 4730 nM |
| COc1cc2c(cc1Cc1cccc(Cl)c1F)c(=O)c(C(=O)O)cn2[C@@H](CO)C(C)C | 3260 nM | 9320 nM |
| CN(C)CCCOc1c2ccc(Cl)cc2nc2c1oc1ccccc12 | 1950 nM | 5070 nM |
| COc1cccc(/C=N/NC(=O)c2ccccc2N2CCCC2)c1O | 3330 nM | > 100000 nM |
| CCC(C)C1NC(=O)C(CCNCS(=O)(=O)O)NC(=O)C(NC(=O)C(CCNCS(=O)(=O)O)NC(=O)C(NC(=O)C(CCNCS(=O)(=O)O)NC(=O)CCCCC(C)C)C(C)O)CCNC(=O)C(C(C)O)NC(=O)C(CCNCS(=O)(=O)O)NC(=O)C(CCNCS(=O)(=O)O)NC(=O)C(C(C)CC)NC1=O (stereo not given) ({Heptanoyl(6-Me)}-[ξDab(CH2SO3H)]T[ξDab(CH2SO3H)][Dab][ξDab(CH2SO3H)]II[ξDab(CH2SO3H)][ξDab(CH2SO3H)]T; lactam 4-C; configuration not given here) | 807 nM | 4890 nM |
| CC(=O)Nc1c(I)c(NC(C)=O)c(I)c(C(=O)O)c1I | > 100000 nM | > 100000 nM |
| C=C1C(=O)O[C@H]2[C@H]1CC/C(C=Nc1c(N)cc(C(F)(F)F)cc1C(F)(F)F)=C\CC[C@@]1(C)O[C@@H]21 | 1500 nM | 3210 nM |
| C[C@@H](NC(=O)/C(C#N)=C/c1ccc([N+](=O)[O-])cc1)c1ccccc1 | 1740 nM | 3370 nM |
| COc1ccc2c(O)c(/C=C3\N=Nc4ccccc43)oc2c1C[C@@H]1CCNC[C@H]1F | 10400 nM | 23600 nM |
| O=C(Nc1ccc(-n2cc(-c3ccncc3)c(-c3ccc(O)c(Cl)c3)n2)cc1)Nc1ccc(Cl)c(C(F)(F)F)c1 | 2960 nM | 13100 nM |
| COCCNc1ccc2c3c(cccc13)C(=O)N(CCN(C)C)C2=O | 7100 nM | > 25000 nM |
| N#Cc1c(N2CCOCC2)nc(=S)[nH]c1-c1ccccc1 | 25800 nM | > 100000 nM |
| CN1CCC2(CC1)NC(=O)c1c(c3ccc(Cl)c(Cl)c3n1C)C2C#N (stereo not given) | 2180 nM | 6870 nM |
| COc1ccc(Nc2cc(C)nc(NCc3ccccc3)n2)cc1 | 776 nM | 2510 nM |
| Cc1ccc2c(n1)C(=O)C(Cl)=C(Nc1ccccc1C(=O)OC(C)(C)C)C2=O | 1470 nM | 3250 nM |
| C[C@]12CC[C@@H]3c4cc(O)c(O)cc4CC[C@H]3[C@@H]1CC[C@@H]2O | 3820 nM | 21100 nM |
| CC[C@@H](C(=O)[C@H](C)[C@H](O)[C@@H](C)[C@H]1O[C@H]([C@@H](CC)C(=O)N(CC)CC)CC[C@H]1C)C1O[C@]2(C=C[C@@H](O)[C@]3(CC[C@@](C)([C@H]4CC[C@](O)(CC)[C@H](C)O4)O3)O2)[C@H](C)C[C@@H]1C (stereo not given in full) | 1810 nM | 5800 nM |
| CC/C(=C(/c1ccc(O)cc1)c1ccc(OCCN)cc1)c1ccccc1 | 1570 nM | 3940 nM |
| Cc1cc(Nc2ncc3c(n2)N(C)C(=O)N(c2cc(NC(=O)c4cccc(C(F)(F)F)c4)ccc2C)C3)n(C)n1 | 57.9 nM | 396 nM |
| COc1cc2c(c(OC)c1OC)-c1ccc(OC)c(=O)cc1[C@@H](NC(C)=O)CC2 | < 10 nM | > 100000 nM |
| Cc1cc(O)cc(C)c1/C=C/c1cncc(C(N)=O)c1 | 749 nM | 4620 nM |
